One may read the IC50 as the midpoint of a concentration-inhibition curve.

The target in the assay is Recombinant human KIF18A (1-467 His-tagged) protein (Homo sapiens (Human), UniProt Q8NI77). Description: KIF18A Enzyme Assay: microtubule-stimulated ATPase activity (ADP-Glo). The following applies: read-out: KIF18A ATPase IC50; 30 nM KIF18A, 30 μg/mL pig microtubules, ATP at Km 75 μM, ADP-Glo luminescence. For orientation: In ADP-Glo the light output rises with the ADP produced.
Chain of Recombinant human KIF18A (1-467 His-tagged) protein (Q8NI77 1-467): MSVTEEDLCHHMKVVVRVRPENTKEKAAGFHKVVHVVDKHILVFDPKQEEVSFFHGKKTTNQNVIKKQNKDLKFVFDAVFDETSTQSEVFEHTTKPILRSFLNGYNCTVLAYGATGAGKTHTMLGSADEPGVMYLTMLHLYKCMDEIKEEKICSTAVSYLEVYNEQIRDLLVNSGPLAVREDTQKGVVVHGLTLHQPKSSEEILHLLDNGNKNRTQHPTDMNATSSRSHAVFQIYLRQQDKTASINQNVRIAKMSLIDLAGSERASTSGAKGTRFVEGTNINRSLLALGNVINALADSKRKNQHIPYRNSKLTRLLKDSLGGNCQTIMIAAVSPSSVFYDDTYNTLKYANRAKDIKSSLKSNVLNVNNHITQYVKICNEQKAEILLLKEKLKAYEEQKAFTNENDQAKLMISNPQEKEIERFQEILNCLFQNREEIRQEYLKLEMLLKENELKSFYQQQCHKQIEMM
Chain of Recombinant human KIF18A (1-467 His-tagged) protein (P02550 whole entry partner): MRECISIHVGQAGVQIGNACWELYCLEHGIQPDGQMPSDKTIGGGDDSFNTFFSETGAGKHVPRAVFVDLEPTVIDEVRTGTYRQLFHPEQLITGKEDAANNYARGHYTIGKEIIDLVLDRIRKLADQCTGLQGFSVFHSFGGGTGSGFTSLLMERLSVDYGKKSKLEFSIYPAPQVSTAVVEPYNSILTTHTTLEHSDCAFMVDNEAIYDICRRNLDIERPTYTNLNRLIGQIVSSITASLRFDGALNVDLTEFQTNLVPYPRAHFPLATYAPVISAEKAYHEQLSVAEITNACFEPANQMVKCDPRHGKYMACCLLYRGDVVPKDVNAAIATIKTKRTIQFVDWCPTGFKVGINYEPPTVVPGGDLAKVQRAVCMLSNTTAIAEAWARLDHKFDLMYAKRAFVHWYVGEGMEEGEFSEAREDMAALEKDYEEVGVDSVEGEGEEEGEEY
Chain of Recombinant human KIF18A (1-467 His-tagged) protein (P02554 whole entry partner): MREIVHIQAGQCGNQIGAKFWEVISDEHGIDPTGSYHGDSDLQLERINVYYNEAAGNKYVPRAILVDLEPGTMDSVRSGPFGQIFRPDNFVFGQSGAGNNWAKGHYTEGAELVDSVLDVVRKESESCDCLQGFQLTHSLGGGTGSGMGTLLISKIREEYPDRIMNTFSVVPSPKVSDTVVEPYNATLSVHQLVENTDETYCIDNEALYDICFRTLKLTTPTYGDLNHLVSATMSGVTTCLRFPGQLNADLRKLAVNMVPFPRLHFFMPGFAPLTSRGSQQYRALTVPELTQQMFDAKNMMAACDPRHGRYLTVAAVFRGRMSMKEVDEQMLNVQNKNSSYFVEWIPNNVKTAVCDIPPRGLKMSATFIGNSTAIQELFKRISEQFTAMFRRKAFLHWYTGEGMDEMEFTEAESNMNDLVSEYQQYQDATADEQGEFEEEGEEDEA
Source text: KIF18A Enzyme Assay: Microtubule-stimulated ATPase activity assay is used to measure KIF18A enzyme activity after treatment with compound. Compounds were 2-fold serially diluted in DMSO (Sigma Inc) over 22-point concentration range. […] The assay measures ADP formed from the ATPase reaction.
Consider `Cc1cc(NC(=O)c2ccc(NS(=O)(=O)C3CCOC3)cc2N2CCC3(CC2)CC3)nc(N2CCC(F)(F)CC2)n1` (stereo in doubt) [Example 11-73, (R)-N-(2-(4,4-Difluoropiperidin-1-yl)-6-methylpyrimidin-4-yl)-2-(6-azaspiro[2.5]octan-6-yl)-4-((tetrahydrofuran)-3 sulfonamido)benzamide], for which the half-inhibitory concentration (IC50) was 79 nM. With `Cc1cc(NC(=O)c2ccc(NS(=O)(=O)[C@H](C)CO)cc2N2CCC3(CC2)CC3)nc(N2CC(F)(F)C2)n1` (single isomer, unassigned) [Example 11-76], the half-maximal inhibitory concentration (IC50) was 20 nM.

On to `Cc1cc(NC(=O)c2ccc(S(=N)(=O)C(C)C)cc2N2CCC3(CC2)CC3)nc(N2CCC(F)(F)CC2)n1` (stereo not shown) [Example 19-5, N-(2-(4,4-Difluoropiperidin-1-yl)-6-methylpyrimidin-4-yl)-4-(propan-2-ylsulfonimidoyl)-2-(6-azaspiro[2.5]octan-6-yl)benzamide], for which the half-maximal inhibitory concentration (IC50) was found to be 175 nM. With `Cc1cc(NC(=O)c2ccc(S(C)(=O)=O)cc2N2CCC3(CC2)CC3)nc(NC[C@H](C)O)n1` [Example 1-5, (S)-N-(2-((2-Hydroxypropyl)amino)-6-methylpyrimidin-4-yl)-4-(methylsulfonyl)-2-(6-azaspiro[2.5]octan-6-yl)benzamide] the figure was 451 nM; with `C[C@@H]1CN(c2nccc(NC(=O)c3ccc(NS(=O)(=O)[C@@H](C)CO)cc3N3CCC4(CC3)CC4)n2)CCO1` [Example 6-24-1, 4-(((S)-2-Hydroxy-1-methylethyl)sulfonamido)-N-(2-((R)-2-methylmorpholino)pyrimidin-4-yl)-2-(6-azaspiro[2.5]octan-6-yl)benzamide], 17.4 nM; with `Cc1cc(NC(=O)c2ccc(NS(=O)(=O)CCO)cc2N2CCC3(CC2)CC3)nc(N2CC3(CC3)C2)n1` [Example 11-17, 4-((2-Hydroxyethyl)sulfonamido)-N-(6-methyl-2-(5-azaspiro[2.3]hexan-5-yl)pyrimidin-4-yl)-2-(6-azaspiro[2.5]octan-6-yl)benzamide], 1090 nM. With `C[C@@H]1CN(c2nccc(NC(=O)c3ccc(NS(=O)(=O)CCO)cc3N3CCC4(CC3)CC4)n2)CCO1` [Example 6-4, (R)-4-((2-Hydroxyethyl)sulfonamido)-N-(2-(2-methylmorpholino)pyrimidin-4-yl)-2-(6-azaspiro[2.5]octan-6-yl)benzamide] the figure was 32 nM; with `Cc1cc(NC(=O)c2ccc(NS(=O)(=O)CCO)cc2N2CCC3(CC2)CC3)nc(N2C[C@H]3C[C@H]3C2)n1` [Example 11-29, N-(2-((1R,5S)-3-Azabicyclo[3.1.0]hexan-3-yl)-6-methylpyrimidin-4-yl)-4-((2-hydroxyethyl)sulfonamido)-2-(6-azaspiro[2.5]octan-6-yl)benzamide], 20 nM.

In the case of `Cc1cc(NC(=O)c2ccc(NS(=O)(=O)[C@H](C)CO)cc2N2CCC3(CC2)CC3)nc(N2CCO[C@H](C)C2)n1` [Example 6-23-2, 4-(((R)-2-Hydroxy-1-methylethyl)sulfonamido)-N-(6-methyl-2-((R)-2-methylmorpholino)pyrimidin-4-yl)-2-(6-azaspiro[2.5]octan-6-yl)benzamide], the IC50 came to 37.3 nM. With `Cc1cc(NC(=O)c2ccc(S(=O)(=O)N[C@H](C)CO)cc2N2CCC3(CC2)CC3)nc(N2CCC(F)(F)CC2)n1` [Example 17-6, (R)-N-(2-(4,4-Difluoropiperidin-1-yl)-6-methylpyrimidin-4-yl)-4-(N-(1-hydroxypropan-2-yl)sulfamoyl)-2-(6-azaspiro[2.5]octan-6-yl)benzamide] the figure was 127 nM. With `Cc1cc(NC(=O)c2ccc(NS(=O)(=O)C3CC3)cc2N2CCC3(CC2)CC3)nc(N2CCC(F)(F)CC2)n1` [Example 6-16, 4-(Cyclopropanesulfonamido)-N-(2-(4,4-difluoropiperidin-1-yl)-6-methylpyrimidin-4-yl)-2-(6-azaspiro[2.5]octan-6-yl)benzamide] the figure was 52 nM.

Turning to `C[C@@H]1CN(c2nccc(NC(=O)c3ccc(NS(=O)(=O)[C@H](C)CO)cc3N3CCC4(CC3)CC4)n2)CCO1` [Example 6-24-2, 4-(((R)-2-hydroxy-1-methylethyl)sulfonamido)-N-(2-((R)-2-methylmorpholino)pyrimidin-4-yl)-2-(6-azaspiro[2.5]octan-6-yl)benzamide], the IC50 is 28 nM.

Consider `O=C(Nc1ccnc(N2CCC(F)(F)CC2)n1)c1ccc(S(=O)(=O)NCCO)cc1N1CCC2(CC1)CC2` [Example 17-4, N-(2-(4,4-Difluoropiperidin-1-yl)pyrimidin-4-yl)-4-(N-(2-hydroxyethyl)sulfamoyl)-2-(6-azaspiro[2.5]octan-6-yl)benzamide], for which the IC50 was 23 nM. With `C[C@@H]1CN(c2nccc(NC(=O)c3ccc(S(=O)(=O)NC4(C)COC4)cc3N3CCC4(CC3)CC4)n2)CCO1` [Example 2-2, (R)-N-(2-(2-Methylmorpholino)pyrimidin-4-yl)-4-(N-(3-methyloxetan-3-yl)sulfamoyl)-2-(6-azaspiro[2.5]octan-6-yl)benzamide] the figure was 68 nM; with `Cc1cc(NC(=O)c2ccc(NS(=O)(=O)CCO)cc2N2CCC3(CC2)CC3)nc(N2CCC[C@H](O)C2)n1` [Example 11-53, (S)-4-((2-Hydroxyethyl)sulfonamido)-N-(2-(3-hydroxypiperidin-1-yl)-6-methylpyrimidin-4-yl)-2-(6-azaspiro[2.5]octan-6-yl)benzamide], 105 nM. With `Cc1cc(NC(=O)c2ccc(NS(=O)(=O)CCO)cc2N2CCC3(CC2)CC3)nc(N2CC3(COC3)C2)n1` [Example 11-8, 4-((2-Hydroxyethyl)sulfonamido)-N-(6-methyl-2-(2-oxa-6-azaspiro[3.3]heptan-6-yl)pyrimidin-4-yl)-2-(6-azaspiro[2.5]octan-6-yl)benzamide] the figure was 640 nM.

For the compound `O=C(Nc1ccnc(OCCC(F)(F)F)c1)c1ccc(NS(=O)(=O)CCO)cc1N1CCC2(CC1)CC2` [Example 11-59, 4-((2-Hydroxyethyl)sulfonamido)-2-(6-azaspiro[2.5]octan-6-yl)-N-(2-(3,3,3-trifluoropropoxy)pyridin-4-yl)benzamide], the IC50 amounted to 58 nM. As to `C[C@@H]1CN(c2nc(NC(=O)c3ccc(NS(=O)(=O)CCO)cc3N3CCC4(CC3)CC4)cc(C(C)(C)O)n2)CCO1` [Example 6-40, (R)-4-((2-Hydroxyethyl)sulfonamido)-N-(6-(2-hydroxypropan-2-yl)-2-(2-methylmorpholino)pyrimidin-4-yl)-2-(6-azaspiro[2.5]octan-6-yl)benzamide], the IC50 is 161 nM. `Cc1cc(NC(=O)c2ccc(NS(=O)(=O)CCO)cc2N2CCC3(CC2)CC3)nc(N2CC(O)(C3CC3)C2)n1` [Example 11-16, N-(2-(3-Cyclopropyl-3-hydroxyazetidin-1-yl)-6-methylpyrimidin-4-yl)-4-((2-hydroxyethyl)sulfonamido)-2-(6-azaspiro[2.5]octan-6-yl)benzamide]: the IC50 was determined as 1010 nM. With `Cc1cc(NC(=O)c2ccc(S(=O)(=O)C3CNC3)cc2N2CCC3(CC2)CC3)nc(N2CCC(F)(F)CC2)n1` [Example 21, 4-(Azetidin-3-ylsulfonyl)-N-(2-(4,4-difluoropiperidin-1-yl)-6-methylpyrimidin-4-yl)-2-(6-azaspiro[2.5]octan-6-yl)benzamide] the figure was 40 nM. As to `Cc1cc(NC(=O)c2ccc(NS(=O)(=O)CCO)cc2N2CCC(C)(C)CC2)nc(N2CCC(F)(F)CC2)n1` [Example 11-41, N-(2-(4,4-Difluoropiperidin-1-yl)-6-methylpyrimidin-4-yl)-2-(4,4-dimethylpiperidin-1-yl)-4-((2-hydroxyethyl)sulfonamido)benzamide], the half-maximal inhibitory concentration (IC50) came out at 127 nM.

Consider `Cc1cc(NC(=O)c2ccc(NS(=O)(=O)CCO)cc2N2CCC3(CC2)CC3)nc(N2CC([C@H](C)O)C2)n1` [Example 11-21, (S)-N-(2-(3-(1-Hydroxyethyl)azetidin-1-yl)-6-methylpyrimidin-4-yl)-4-((2-hydroxyethyl)sulfonamido)-2-(6-azaspiro[2.5]octan-6-yl)benzamide], for which the 50% inhibitory concentration (IC50) stood at 704 nM. With `CC1(NS(=O)(=O)c2ccc(C(=O)Nc3ccnc(C(C)(C)O)n3)c(N3CCC4(CC3)CC4)c2)COC1` [Example 2, N-(2-(2-Hydroxypropan-2-yl)pyrimidin-4-yl)-4-(N-(3-methyloxetan-3-yl)sulfamoyl)-2-(6-azaspiro[2.5]octan-6-yl)benzamide] the figure was 143 nM; with `Cc1cc(NC(=O)c2ccc(NS(=O)(=O)C[C@H](C)O)cc2N2CCC3(CC2)CC3)nc(N2CCC(F)(F)CC2)n1` [Example 6-32-2, (S)-N-(2-(4,4-Difluoropiperidin-1-yl)-6-methylpyrimidin-4-yl)-4-((2-hydroxypropyl)sulfonamido)-2-(6-azaspiro[2.5]octan-6-yl)benzamide], 141 nM. As for `Cc1cc(NC(=O)c2ccc(NS(=O)(=O)CCO)cc2N2CCC3(CC2)CC3)nc(N2CC(F)(F)C2)n1` [Example 7, N-(2-(3,3-Difluoroazetidin-1-yl)-6-methylpyrimidin-4-yl)-4-((2-hydroxyethyl)sulfonamido)-2-(6-azaspiro[2.5]octan-6-yl)benzamide], the IC50 came to 23 nM. Take `Cc1cc(NC(=O)c2ccc(S(=O)(=O)C(C)C)cc2N2CCC3(CC2)CC3)nc(N2CCC(F)(F)CC2)n1` [Example 14-3, N-(2-(4,4-Difluoropiperidin-1-yl)-6-methylpyrimidin-4-yl)-4-(isopropylsulfonyl)-2-(6-azaspiro[2.5]octan-6-yl)benzamide]: the IC50 came to 128 nM. The same measure for `Cc1cc(NC(=O)c2ccc(NS(=O)(=O)CCO)cc2N2CCC3(CC2)CC3)nc(N2CCC(F)CC2)n1` [Example 11-51, N-(2-(4-Fluoropiperidin-1-yl)-6-methylpyrimidin-4-yl)-4-((2-hydroxyethyl)sulfonamido)-2-(6-azaspiro[2.5]octan-6-yl)benzamide]: 20 nM. With `Cc1cc(NC(=O)c2ccc(NS(=O)(=O)CCO)cc2N2CCC3(CC2)CC3)nc(N2CCC[C@H](C#N)C2)n1` [Example 11-35, (S)-N-(2-(3-Cyanopiperidin-1-yl)-6-methylpyrimidin-4-yl)-4-((2-hydroxyethyl)sulfonamido)-2-(6-azaspiro[2.5]octan-6-yl)benzamide], the IC50 amounted to 43 nM.
